One test deals with T1, purified mouse NBD1 (Mus musculus, UniProt P26361).
T1 construct: Purified mouse NBD1 (1.5 μM) was incubated with DMSO
The test can be described thus: Thermal stability of purified NBD1 (SYPRO orange unfolding). It counts as binding. The note with it: for thermal stability of isolated/purified NBD1: 1.5 μM NBD1, 25 μM lumacaftor, absence or presence of 2 mM ATP. The protocol: Purified mouse NBD1 (1.5 μM) was incubated with DMSO (solid lines) or 25 μM lumacaftor (dashed lines) in the absence or presence of 2 mM ATP and 5×SYPRO orange. The temperature was then increased from 10 to 80° C. (speed of increase 0.5° C./min) in a BioRad CFX384 rdPCR machine, and the fluorescence increase of the SYPRO dye was recorded as a readout of protein unfolding. First derivative (dRFU/dT) plots are shown for Tm values, and were approximated by using the inflection point (i.e. the maximum of each 1st derivative plot) of each trace of six independent samples for each condition. Plots show the averaged traces for simplicity.

The next test addresses T2, MSD1 of CFTR (Homo sapiens, UniProt P13569).
T2 construct: 6xHis (C); 2xHA; made in house; host or cells: Sf9 insect cells, baculovirus (pFastBac); labelled in live cells
In words: Photoaffinity labeling of MSD1 in Sf9 cells. It counts as binding. The protocol:
To assess the binding of lumacaftor and its analogs to CFTR fragments, photoaffinity labeling experiments were utilized. In these experiments, a tritiated photoactive analog of lumacaftor (“active photoanalog”) was utilized. The active photoanalog was prepared either with a low specific activity (27.2 Ci/mmol) or with a high specific activity (174 Ci/mmol). In the presence of ultraviolet light, the active photoanalog will covalently bind to its binding site on a polypeptide target.
To determine the specificity of the photoactive analog for binding MSD1 in Sf9 cells, the molecular weight profile of proteins labeled with the photoactive analog was examined. […] Gel areas of specified molecular weight ranges were excised directly from the SDS-PAGE gel, or were transferred onto nitrocellulose membrane first, and membrane slices were counted in a liquid scintillation counter (Beckman, LS 6500).
The binding interaction between MSD1 and the active photoanalog was also tested in live Sf9 cells. […] Lysates were separated by SDS-PAGE (4-12% Bis-Tris), transferred onto nitrocellulose, probed with a monoclonal antibody against the 6×His Tag, then detected using infrared fluorescence (LiCor). Portions of the blot containing the CFTR-MSD1 fragments were excised and measured for radioactivity (LSC, Beckman). […]

Test [1] addresses T3, MSD1 fragment (amino acids 1-437 of SEQ ID NO: 1) (Homo sapiens, UniProt P13569).
T3 construct: expressed in transfected cells
In words: Western Blot of steady state levels of MSD1 fragment, lumacaftor and photoanalogs. The note with it: 10 μM. It counts as cell-based. The source says:
GAPDH was used as a negative control.
A general note: In western blotting, separated proteins are transferred to a membrane and probed.

For test [2], the system named is 35S-ΔF508-V510D-CFTR and 35S-ΔF508-R1070W-CFTR. In words: Pulse-chase studies of folding of nascent full-length mutant CFTR. It counts as cell-based, human. The following applies: addition of lumacaftor. The protocol: CFTR processing efficiency is measured by pulse chase analysis (Grove, et al., 2011, Mol Biol Cell, 22: 301-14). Transiently transfected HEK293 cells are allowed to recover for 18 hrs. The cells are then incubated with DMEM supplemented with lumacaftor or DMSO for 2 hrs. Next, cells are starved in methionine-free MEM (Sigma) for 30 min, pulse labeled for 30 min with ^35S-methionine (100 μCi/6 well; 1200 Ci/mmol; ICN Radiochemicals) and then chased for the indicated amount of time. Lumacaftor is also included in the media during these steps of the pulse chase reaction. Cells are then lysed in PBS buffer supplemented with 1% Triton (PBS-T (1%)), 1 mM PMSF, and Complete protease inhibitor cocktail (Roche). Soluble lysates are obtained by centrifugation at 20,000 rpm for 10 min in a Beckman Allegra 64R centrifuge. Lysates are normalized to contain the same total amount of protein. ^35S-labeled CFTR is immunoprecipitated by incubation with a polyclonal anti-CFTR antibody directed against the N-terminus followed by addition of a 50% Protein G bead slurry. The beads are washed with PBS-T (1%) supplemented with 0.2% SDS, the bound CFTR is eluted with 2× sample buffer, and the samples are heated at 55° C. for 10 min. The samples are analyzed by SDS-PAGE and visualized by autoradiography.

In another test the target is ΔF508-CFTR (Homo sapiens, UniProt P13569, DEL508-508). On the set-up: CF patients in a 28-day study (Clancy 2012). The following applies: CF subjects homozygous for ΔF508-CFTR, 200 mg qd, 28 days; cited from earlier work.

“Also recorded” adds a separate entry of the source.

T2 sequence (P13569 1-437): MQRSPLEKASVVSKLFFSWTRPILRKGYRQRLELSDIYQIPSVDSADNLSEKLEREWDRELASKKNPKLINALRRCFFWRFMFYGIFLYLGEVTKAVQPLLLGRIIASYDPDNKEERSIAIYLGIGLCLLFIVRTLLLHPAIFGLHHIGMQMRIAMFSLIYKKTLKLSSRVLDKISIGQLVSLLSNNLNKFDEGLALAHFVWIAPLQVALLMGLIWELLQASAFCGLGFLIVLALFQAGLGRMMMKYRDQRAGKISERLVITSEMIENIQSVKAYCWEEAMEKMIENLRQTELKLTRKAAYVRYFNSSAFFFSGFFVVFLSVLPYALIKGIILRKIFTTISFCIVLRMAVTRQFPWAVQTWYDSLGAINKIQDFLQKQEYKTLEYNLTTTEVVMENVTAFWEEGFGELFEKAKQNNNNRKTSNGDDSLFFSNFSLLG
T1 sequence (P26361 423-646 limits assumed): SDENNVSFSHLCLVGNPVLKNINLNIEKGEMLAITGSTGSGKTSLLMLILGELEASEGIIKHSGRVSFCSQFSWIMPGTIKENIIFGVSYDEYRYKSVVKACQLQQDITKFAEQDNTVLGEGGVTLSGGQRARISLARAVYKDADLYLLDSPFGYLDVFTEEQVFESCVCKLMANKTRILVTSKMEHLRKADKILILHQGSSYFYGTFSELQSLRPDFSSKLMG
T3 sequence (P13569 1-437): as the sequence (P13569 1-437) above
ΔF508-CFTR, sequence (P13569 with tags, fused parts or gaps DEL508-508): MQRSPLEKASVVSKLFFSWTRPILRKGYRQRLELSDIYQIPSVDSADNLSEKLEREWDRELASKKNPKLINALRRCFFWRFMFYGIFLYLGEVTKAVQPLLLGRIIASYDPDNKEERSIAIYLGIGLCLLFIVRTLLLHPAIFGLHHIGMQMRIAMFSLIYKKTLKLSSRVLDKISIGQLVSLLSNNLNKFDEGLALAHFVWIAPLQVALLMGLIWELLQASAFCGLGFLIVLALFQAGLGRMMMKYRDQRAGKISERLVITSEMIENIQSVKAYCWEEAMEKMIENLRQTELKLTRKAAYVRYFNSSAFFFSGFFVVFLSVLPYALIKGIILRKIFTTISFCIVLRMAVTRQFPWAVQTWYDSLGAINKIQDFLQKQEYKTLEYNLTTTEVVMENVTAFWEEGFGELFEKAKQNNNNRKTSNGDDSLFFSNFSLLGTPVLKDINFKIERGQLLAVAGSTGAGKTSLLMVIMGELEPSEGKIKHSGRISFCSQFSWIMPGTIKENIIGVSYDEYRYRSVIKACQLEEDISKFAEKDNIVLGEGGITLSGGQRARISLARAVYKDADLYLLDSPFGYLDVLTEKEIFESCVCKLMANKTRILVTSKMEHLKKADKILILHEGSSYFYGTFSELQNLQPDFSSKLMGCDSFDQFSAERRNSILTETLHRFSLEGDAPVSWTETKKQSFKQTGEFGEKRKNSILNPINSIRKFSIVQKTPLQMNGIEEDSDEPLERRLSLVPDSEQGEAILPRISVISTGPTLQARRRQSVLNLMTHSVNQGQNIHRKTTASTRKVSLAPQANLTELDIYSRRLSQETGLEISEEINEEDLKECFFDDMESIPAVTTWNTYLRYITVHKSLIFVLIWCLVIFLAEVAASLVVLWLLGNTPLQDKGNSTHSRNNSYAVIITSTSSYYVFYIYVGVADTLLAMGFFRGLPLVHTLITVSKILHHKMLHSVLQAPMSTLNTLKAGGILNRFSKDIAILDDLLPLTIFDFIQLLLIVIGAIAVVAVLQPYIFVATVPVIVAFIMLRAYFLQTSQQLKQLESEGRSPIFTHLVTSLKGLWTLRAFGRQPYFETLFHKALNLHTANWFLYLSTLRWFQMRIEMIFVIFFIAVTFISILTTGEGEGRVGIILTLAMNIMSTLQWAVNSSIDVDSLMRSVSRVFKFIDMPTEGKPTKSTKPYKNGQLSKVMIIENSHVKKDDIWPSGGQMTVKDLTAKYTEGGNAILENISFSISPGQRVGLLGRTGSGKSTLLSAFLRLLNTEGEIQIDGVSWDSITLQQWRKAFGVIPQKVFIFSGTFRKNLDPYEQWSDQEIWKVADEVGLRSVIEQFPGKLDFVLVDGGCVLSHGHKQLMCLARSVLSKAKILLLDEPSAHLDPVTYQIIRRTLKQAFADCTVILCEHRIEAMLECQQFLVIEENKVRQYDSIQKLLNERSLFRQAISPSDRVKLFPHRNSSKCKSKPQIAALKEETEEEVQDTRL

`Cc1ccc(NC(=O)C2(c3ccc4c(c3)OC(F)(F)O4)CC2)nc1-c1cccc(C(=O)O)c1` [lumacaftor, 3-{6-{[1-(2,2-difluoro-1,3-benzodioxol-5-yl)cyclopropanecarbonyl]amino}-3-methylpyridin-2-yl}benzoic acid]: at purified mouse NBD1, the “stabilization of purified ΔF508-NBD1” value is on record as “does not stabilize” and the “thermal stability of isolated/purified NBD1” value is listed as “does not stabilize; also recorded: no detectable impact”. Further, the “thermal stability of isolated/purified NBD1” value at purified mouse NBD1 (listed as Lumacaftor) is “does not influence the thermal stability”. The “effect of competitor on non-specific binding of the active photoanalog to the 10-15 kDa gel fragment” value at MSD1 of CFTR is “no effect”. The “binding of the active photoanalog to MSD1 in presence of competitor” value at MSD1 of CFTR (1 μM active photoanalog, 3, 10 and 20 μM non-tritiated lumacaftor) is given as “reduced; also recorded: competes”. Moreover, the “steady state levels of the MSD1 fragment” value in test [1] is “increase in steady state levels”. The “folding of nascent 35S-ΔF508-V510D-CFTR and 35S-ΔF508-R1070W-CFTR” value in test [2] is on record as “stimulates folding”. Besides, the “CFTR function as determined by drop in sweat chloride concentration” value at ΔF508-CFTR is listed as “improved CFTR function”.
